For the data set, the system named is CCRIS mutagenicity, Ames/micronucleus/aberration tests. The data set is described as follows: CCRIS mutagenicity studies.
Where [1] appears, read: Test System: AMES SALMONELLA TYPHIMURIUM, Strain/Indicator: TA98, Metabolic Activation: NONE, Method: PREINCUBATION
Setting [2] is: Test System: AMES SALMONELLA TYPHIMURIUM, Strain/Indicator: TA100, Metabolic Activation: NONE, Method: PREINCUBATION
Where [3] appears, read: Test System: AMES SALMONELLA TYPHIMURIUM, Strain/Indicator: TA1535, Metabolic Activation: NONE, Method: PREINCUBATION

Activity calls are given as the source filed them. How the calls were made is not given here.

On to `COC(=O)C(Cl)CCC(Cl)CCCCCC(Cl)CCC(Cl)CCCCCl` (stereo unspecified), for which the mutagenic call reads like this: (Test System: AMES SALMONELLA TYPHIMURIUM, Strain/Indicator: TA97, Metabolic Activation: HAMSTER, LIVER, S-9, AROCLOR 1254 (10 OR 30%), Method: PREINCUBATION) “inactive; negative”; (Test System: AMES SALMONELLA TYPHIMURIUM, Strain/Indicator: TA97, Metabolic Activation: NONE, Method: PREINCUBATION) “inactive; negative”; (Test System: AMES SALMONELLA TYPHIMURIUM, Strain/Indicator: TA97, Metabolic Activation: RAT, LIVER, S-9, AROCLOR 1254 (10 OR 30%), Method: PREINCUBATION) “inactive; negative”; (Test System: AMES SALMONELLA TYPHIMURIUM, Strain/Indicator: TA98, Metabolic Activation: HAMSTER, LIVER, S-9, AROCLOR 1254 (10 OR 30%), Method: PREINCUBATION) “inactive; negative”; under setting [1], “inactive; negative”; (Test System: AMES SALMONELLA TYPHIMURIUM, Strain/Indicator: TA98, Metabolic Activation: RAT, LIVER, S-9, AROCLOR 1254 (10 OR 30%), Method: PREINCUBATION) “inactive; negative”. For the same compound, the mutagenic call is “inactive; negative” (Test System: AMES SALMONELLA TYPHIMURIUM, Strain/Indicator: TA100, Metabolic Activation: HAMSTER, LIVER, S-9, AROCLOR 1254 (10 OR 30%), Method: PREINCUBATION); “inactive; negative” under setting [2]; “inactive; negative” (Test System: AMES SALMONELLA TYPHIMURIUM, Strain/Indicator: TA100, Metabolic Activation: RAT, LIVER, S-9, AROCLOR 1254 (10 OR 30%), Method: PREINCUBATION); “inactive; negative” (Test System: AMES SALMONELLA TYPHIMURIUM, Strain/Indicator: TA1535, Metabolic Activation: HAMSTER, LIVER, S-9, AROCLOR 1254 (10 OR 30%), Method: PREINCUBATION); “inactive; negative” under setting [3]; “inactive; negative” (Test System: AMES SALMONELLA TYPHIMURIUM, Strain/Indicator: TA1535, Metabolic Activation: RAT, LIVER, S-9, AROCLOR 1254 (10 OR 30%), Method: PREINCUBATION).

On to `Cc1cc(S(=O)(=O)O)ccc1N`, for which the mutagenic call is, setting by setting: (Test System: AMES SALMONELLA TYPHIMURIUM, Strain/Indicator: TA98, Metabolic Activation: HAMSTER, LIVER, S-9, AROCLOR 1254, Method: STANDARD PLATE) “inactive; negative”; (Test System: AMES SALMONELLA TYPHIMURIUM, Strain/Indicator: TA98, Metabolic Activation: NONE, Method: STANDARD PLATE) “inactive; negative”; (Test System: AMES SALMONELLA TYPHIMURIUM, Strain/Indicator: TA98, Metabolic Activation: RAT, LIVER, S-9, AROCLOR 1254, Method: STANDARD PLATE) “inactive; negative”; (Test System: AMES SALMONELLA TYPHIMURIUM, Strain/Indicator: TA100, Metabolic Activation: HAMSTER, LIVER, S-9, AROCLOR 1254, Method: STANDARD PLATE) “inactive; negative”; (Test System: AMES SALMONELLA TYPHIMURIUM, Strain/Indicator: TA100, Metabolic Activation: NONE, Method: STANDARD PLATE) “inactive; negative”; (Test System: AMES SALMONELLA TYPHIMURIUM, Strain/Indicator: TA100, Metabolic Activation: RAT, LIVER, S-9, AROCLOR 1254, Method: STANDARD PLATE) “inactive; negative”. For the same compound, the mutagenic call is “inactive; negative” (Test System: AMES SALMONELLA TYPHIMURIUM, Strain/Indicator: TA1535, Metabolic Activation: HAMSTER, LIVER, S-9, AROCLOR 1254, Method: STANDARD PLATE); “inactive; negative” (Test System: AMES SALMONELLA TYPHIMURIUM, Strain/Indicator: TA1535, Metabolic Activation: NONE, Method: STANDARD PLATE); “inactive; negative” (Test System: AMES SALMONELLA TYPHIMURIUM, Strain/Indicator: TA1535, Metabolic Activation: RAT, LIVER, S-9, AROCLOR 1254, Method: STANDARD PLATE); “inactive; negative” (Test System: AMES SALMONELLA TYPHIMURIUM, Strain/Indicator: TA1537, Metabolic Activation: HAMSTER, LIVER, S-9, AROCLOR 1254, Method: STANDARD PLATE); “inactive; negative” (Test System: AMES SALMONELLA TYPHIMURIUM, Strain/Indicator: TA1537, Metabolic Activation: NONE, Method: STANDARD PLATE); “inactive; negative” (Test System: AMES SALMONELLA TYPHIMURIUM, Strain/Indicator: TA1537, Metabolic Activation: RAT, LIVER, S-9, AROCLOR 1254, Method: STANDARD PLATE). In addition, the mutagenic call (Test System: AMES SALMONELLA TYPHIMURIUM, Strain/Indicator: TA1538, Metabolic Activation: HAMSTER, LIVER, S-9, AROCLOR 1254, Method: STANDARD PLATE) was “inactive; negative”; the mutagenic call (Test System: AMES SALMONELLA TYPHIMURIUM, Strain/Indicator: TA1538, Metabolic Activation: NONE, Method: STANDARD PLATE) was “inactive; negative”; the mutagenic call (Test System: AMES SALMONELLA TYPHIMURIUM, Strain/Indicator: TA1538, Metabolic Activation: RAT, LIVER, S-9, AROCLOR 1254, Method: STANDARD PLATE) was “inactive; negative”; the mutagenic call (Test System: MOUSE LYMPHOMA, Strain/Indicator: L5178Y (TK+/TK-), Metabolic Activation: NONE, Method: SUSPENSION/PLATE) is “inactive; negative. reevaluation of results: negative”; the mutagenic call (Test System: MOUSE LYMPHOMA, Strain/Indicator: L5178Y (TK+/TK-), Metabolic Activation: RAT, LIVER, S-9, AROCLOR 1254, Method: SUSPENSION/PLATE) is “active; positive. reevaluation of results: positive”.

Take `CCCCOCCOP(=O)(OCCOCCCC)OCCOCCCC`: the mutagenic call is “inactive; negative” (Test System: AMES SALMONELLA TYPHIMURIUM, Strain/Indicator: TA98, Metabolic Activation: HAMSTER, LIVER, S-9, AROCLOR 1254, Method: PREINCUBATION); “inactive; negative” under setting [1]; “inactive; negative” (Test System: AMES SALMONELLA TYPHIMURIUM, Strain/Indicator: TA98, Metabolic Activation: RAT, LIVER, S-9, AROCLOR 1254, Method: PREINCUBATION); “inactive; negative” (Test System: AMES SALMONELLA TYPHIMURIUM, Strain/Indicator: TA100, Metabolic Activation: HAMSTER, LIVER, S-9, AROCLOR 1254, Method: PREINCUBATION); “inactive; negative” under setting [2]; “inactive; negative” (Test System: AMES SALMONELLA TYPHIMURIUM, Strain/Indicator: TA100, Metabolic Activation: RAT, LIVER, S-9, AROCLOR 1254, Method: PREINCUBATION). The mutagenic call by setting is: (Test System: AMES SALMONELLA TYPHIMURIUM, Strain/Indicator: TA1535, Metabolic Activation: HAMSTER, LIVER, S-9, AROCLOR 1254, Method: PREINCUBATION) “inactive; negative”; under setting [3], “inactive; negative”; (Test System: AMES SALMONELLA TYPHIMURIUM, Strain/Indicator: TA1535, Metabolic Activation: RAT, LIVER, S-9, AROCLOR 1254, Method: PREINCUBATION) “inactive; negative”; (Test System: AMES SALMONELLA TYPHIMURIUM, Strain/Indicator: TA1537, Metabolic Activation: HAMSTER, LIVER, S-9, AROCLOR 1254, Method: PREINCUBATION) “inactive; negative”; (Test System: AMES SALMONELLA TYPHIMURIUM, Strain/Indicator: TA1537, Metabolic Activation: NONE, Method: PREINCUBATION) “inactive; negative”; (Test System: AMES SALMONELLA TYPHIMURIUM, Strain/Indicator: TA1537, Metabolic Activation: RAT, LIVER, S-9, AROCLOR 1254, Method: PREINCUBATION) “inactive; negative”.

These data come from PubChem BioAssay AID1259407 (Chemical Carcinogenesis Research Information System (CCRIS), 2018).
